Measured values from PubChem BioAssay AID268 (DTP/NCI, 2004).
“And” between values parts separate entries of the source, which are not always exact repeats. Identical values can stand only once.

System: CD2F1 mice, P1798 lymphosarcoma sc, tumor weight T/C
Assay: NCI In Vivo Anticancer Drug Screen. Data for tumor model P1798 Lymphosarcoma (subcutaneous) in CD2F1 (CDF1) mice
Conditions: endpoint: mean tumor weight, higher = larger tumour
Procedure: The antitumor activity of compounds was measured in mice bearing transplantable tumors. Survival or tumor size were measured and the results are expressed as the measurement made in the treated group (T) divided by the measurement made in the vehicle treated control group (C). The tumor model used in this assay is P1798 Lymphosarcoma (subcutaneous) in CD2F1 (CDF1) mice

[1] = dose: 10.0 mg/kg/injection, schedule: Q01DX010 (ip), vehicle: saline
[2] = dose: 20.0 mg/kg/injection, schedule: Q01DX010 (ip), vehicle: saline
[3] = dose: 6.25 mg/kg/injection, schedule: Q01DX010 (ip), vehicle: saline
[4] = dose: 12.5 mg/kg/injection, schedule: Q01DX010 (ip), vehicle: saline
[5] = dose: 25.0 mg/kg/injection, schedule: Q01DX010 (ip), vehicle: saline
[6] = dose: 50.0 mg/kg/injection, schedule: Q01DX010 (ip), vehicle: saline
[7] = dose: 40.0 mg/kg/injection, schedule: Q01DX010 (ip), vehicle: saline
[8] = dose: 100.0 mg/kg/injection, schedule: Q01DX010 (ip), vehicle: saline
[9] = dose: 200.0 mg/kg/injection, schedule: Q01DX010 (ip), vehicle: saline

Q: `CN(Cc1cnc2nc(N)nc(N)c2n1)c1c(Cl)cc(C(=O)NC(CCC(=O)O)C(=O)O)cc1Cl` (stereo not given) was tested. Which T/C [1] did it give?
A: 33 % of control

Q: And the T/C [2]?
A: 12 % of control

Q: For `CC(=O)O[C@]1(C(C)=O)CC[C@H]2[C@@H]3C[C@H](C)C4=CC(=O)C=C[C@]4(C)[C@@]3(F)[C@@H](O)C[C@@]21C`, which T/C (dose: 12.5 mg/kg/injection, schedule: Q01DX005 (sc), vehicle: steriod suspending solution) is on record?
A: 32 % of control

Q: What about the T/C (dose: 12.5 mg/kg/injection, schedule: Q01DX010 (sc), vehicle: steriod suspending solution) of the same compound?
A: 37 % of control and 39 % of control

Q: What about the T/C (dose: 25.0 mg/kg/injection, schedule: Q01DX005 (sc), vehicle: steriod suspending solution) of the same compound?
A: 13 % of control

Q: And the T/C (dose: 25.0 mg/kg/injection, schedule: Q01DX010 (sc), vehicle: steriod suspending solution)?
A: 15 % of control and 16 % of control and 36 % of control

Q: What about the T/C (dose: 25.0 mg/kg/injection, schedule: Q02DX010 (sc), vehicle: steriod suspending solution) of the same compound?
A: 105 % of control

Q: What about the T/C (dose: 50.0 mg/kg/injection, schedule: Q01DX005 (sc), vehicle: steriod suspending solution) of the same compound?
A: 1 % of control

Q: What about the T/C (dose: 50.0 mg/kg/injection, schedule: Q02DX010 (sc), vehicle: steriod suspending solution) of the same compound?
A: 101 % of control

Q: And the T/C (dose: 100.0 mg/kg/injection, schedule: Q01DX005 (sc), vehicle: steriod suspending solution)?
A: 3 % of control

Q: And the T/C (dose: 100.0 mg/kg/injection, schedule: Q02DX010 (sc), vehicle: steriod suspending solution)?
A: 105 % of control

Q: With `N#Cc1ccc(S(N)(=O)=O)cc1` as the compound, how does the T/C (dose: 22.0 mg/kg/injection, schedule: Q01DX010 (ip), vehicle: saline) read?
A: 70 % of control

Q: What about the T/C (dose: 33.0 mg/kg/injection, schedule: Q01DX010 (ip), vehicle: saline) of the same compound?
A: 54 % of control

Q: What about the T/C (dose: 49.0 mg/kg/injection, schedule: Q01DX010 (ip), vehicle: saline) of the same compound?
A: 67 % of control

Q: What about the T/C (dose: 73.0 mg/kg/injection, schedule: Q01DX010 (ip), vehicle: saline) of the same compound?
A: 35 % of control

Q: `NCCCCC(N)C(=O)NCCCCCCCCCCNC(=O)C(N)CCCCN` (stereo not given) was tested. Which T/C [3] did it give?
A: 106 % of control

Q: And the T/C [4]?
A: 99 % of control

Q: And the T/C [5]?
A: 122 % of control

Q: What about the T/C [6] of the same compound?
A: 107 % of control

Q: `O=c1ccc2ccccc2o1` was tested. Which T/C (dose: 110.0 mg/kg/injection, schedule: Q01DX011 (ip), vehicle: carboxymethylcellulose (CMC)) did it give?
A: 69 % of control

Q: What about the T/C (dose: 165.0 mg/kg/injection, schedule: Q01DX011 (ip), vehicle: carboxymethylcellulose (CMC)) of the same compound?
A: 54 % of control

Q: What does the source list for `CCOC(N)=O`?
A: T/C (dose: 125.0 mg/kg/injection, schedule: Q01DX010 (ip), vehicle: saline): 95 % of control; T/C (dose: 250.0 mg/kg/injection, schedule: Q01DX010 (ip), vehicle: saline): 64 % of control; T/C (dose: 500.0 mg/kg/injection, schedule: Q01DX010 (ip), vehicle: saline): 23 % of control

Q: With `Nc1ccn(C2OC(CO)C(O)C2O)c(=O)n1` (stereo not given) as the compound, how does the T/C [1] read?
A: 12 % of control

Q: And the T/C (dose: 18.0 mg/kg/injection, schedule: Q01DX010 (ip), vehicle: saline)?
A: 31 % of control

Q: What about the T/C [2] of the same compound?
A: 10 % of control

Q: What about the T/C (dose: 27.0 mg/kg/injection, schedule: Q01DX010 (ip), vehicle: saline) of the same compound?
A: 12 % of control

Q: And the T/C [7]?
A: 4 % of control and 6 % of control

Q: What about the T/C (dose: 60.0 mg/kg/injection, schedule: Q01DX010 (ip), vehicle: saline) of the same compound?
A: 1 % of control

Q: Which results are given for `c1ccc(COCC[P+](c2ccccc2)(c2ccccc2)c2ccccc2)cc1`?
A: T/C (dose: 3.0 mg/kg/injection, schedule: Q01DX010 (ip), vehicle: saline): 76 % of control; T/C (dose: 5.0 mg/kg/injection, schedule: Q01DX010 (ip), vehicle: saline): 98 % of control; T/C (dose: 8.0 mg/kg/injection, schedule: Q01DX010 (ip), vehicle: saline): 88 % of control; T/C (dose: 12.0 mg/kg/injection, schedule: Q01DX010 (ip), vehicle: saline): 33 % of control

Q: How did the T/C [3] turn out when `NCCCCCCNCCCCCCN` was run?
A: 90 % of control

Q: What about the T/C [4] of the same compound?
A: 89 % of control

Q: And the T/C [5]?
A: 100 % of control and 78 % of control

Q: What about the T/C [6] of the same compound?
A: 50 % of control and 70 % of control

Q: How did the T/C [2] turn out when `COc1cc(-c2ccc(Nc3ccccc3C(=O)O)c(OC)c2)ccc1N` was run?
A: 82 % of control

Q: And the T/C [7]?
A: 52 % of control

Q: What does the source list for `N#CCCCCCNC(=O)CCCCC(=O)NCCCCCC#N`?
A: T/C [8]: 85 % of control; T/C [9]: 111 % of control; T/C (dose: 400.0 mg/kg/injection, schedule: Q01DX010 (ip), vehicle: saline): 87 % of control

Q: For `CSc1ncnc2nc[nH]c12`, which T/C [5] is on record?
A: 100 % of control and 78 % of control

Q: And the T/C [6]?
A: 81 % of control and 86 % of control

Q: And the T/C [8]?
A: 94 % of control and 70 % of control

Q: And the T/C [9]?
A: 61 % of control and 64 % of control

Q: Which T/C (dose: 0.39 mg/kg/injection, schedule: Q01DX010 (ip), vehicle: saline) does the source give for `COc1ccc2[nH]c3c(C)c4ccncc4c(C)c3c2c1` here?
A: 104 % of control

Q: What about the T/C (dose: 0.78 mg/kg/injection, schedule: Q01DX010 (ip), vehicle: saline) of the same compound?
A: 111 % of control

Q: What about the T/C (dose: 1.56 mg/kg/injection, schedule: Q01DX010 (ip), vehicle: saline) of the same compound?
A: 73 % of control

Q: And the T/C [3]?
A: 61 % of control

Q: And the T/C [4]?
A: 45 % of control

Q: What about the T/C [5] of the same compound?
A: 40 % of control and 42 % of control

Q: Which results are given for `S=P(N1CCOCC1)(N1CC1)N1CC1`?
A: T/C [1]: 50 % of control and 75 % of control; T/C [2]: 24 % of control
